# Reference: paper PMC7753040, “Discovery of a Potent RIPK3 Inhibitor for the Amelioration of Necroptosis-Associated Inflammatory Injury” (Frontiers in Cell and Developmental Biology, 2020)
# Tests used:
# HeLa-MLKL (1–190) cells = experiment: MLKL polymerization-induced necroptosis in HeLa-MLKL (1-190) cells (AP20187); format: cell-based, human; settings: doxycycline 1 μg/ml 24 h, 2 h pretreatment, AP20187 60 nM 24 h
# Text: Human colon cancer HT-29 and mouse fibrosarcoma L929 cells were from ATCC. Mouse embryonic fibroblasts (MEF), HT-29 cells stably expressing RIPK3-shRNA and shRNA resistant scramble Flag-tagged RIPK3 (W46), and NIH3T3 cell line stably expressing RIPK3 fused to mutant FK506-binding protein (NIH3T3-RIPK3) were kindly provided by Dr. Xiaodong Wang [National Institute of Biological Sciences (NIBS), Beijing]. HeLa-MLKL (1-190) cell line was a gift from Dr. Zhigao Wang (University of Texas Southwestern Medical Center at Dallas). These cells were cultured in Dulbecco’s modified Eagle’s medium (Hyclone) supplemeted with 10% fetal bovine serum (Invitrogen) and 2 mM L-glutamine (Invitrogen) in a humidified incubator at 37°C and 5% CO2. […]
# Cells were seeded in 96-well plates and then treated as indicated. The cell viability was determined by assessment of ATP levels using the CellTiter-Glo Luminescent Cell Viability Assay kit following the manufacture’s instructions (Promega). Luminescence was calculated with SpectraMax i3x (Molecular Devices).
# In vitro kinase activity assays using recombinant RIPK3 and RIPK1 were performed as described in the section “Materials and Methods.” Data represent mean value ± standard deviation. […] Cell viability was determined by measuring ATP levels. […] Cell viability was determined by measuring ATP levels. […]
# RIPK3 = system: RIPK3; set-up: method as in Mandal et al., 2014; settings: ref Mandal et al., 2014; cited from earlier work
SMILES,polymerized MLKL-induced necroptosis (HeLa-MLKL (1–190) cells),induction of on-target apoptosis (RIPK3)
"COc1nccnc1NS(=O)(=O)c1ccc(NC(=O)/C=C/c2ccc([N+](=O)[O-])s2)cc1 [necrosulfonamide, reference compound]",blocked,–
CC(C)S(=O)(=O)c1ccc2nccc(Nc3ccc4scnc4c3)c2c1 [GSK’872],–,able to induce on-target apoptosis
